In the test the target is T1, HIV-1 protease wild type protein (Human immunodeficiency virus type 1 group M subtype B, UniProt P04585).
T1 construct: HIV-1 protease wild type protein; purchased AscoProt Biotech, Prague, Czech Republic
Kind of test: Biochemical protease assay. The procedure: For the determination of their in vitro activity on HIV proteases the test substances are dissolved in DMSO and serially diluted. In each case 0.5 μl of substance dilution, 20 μl of 0.2-1 nM HIV-1 protease wild type or mutant protein (e.g., multiresistant isolate “35513”: L10I, I15V, L19I, K20R, E35D, M36I, R41K, I54V, L63P, H69K, A71V, T74P, I84V, L89M, L90M, 193L, AscoProt Biotech, Prague, Czech Republic) in buffer 1 (50 mM sodium acetate pH 4.9, 0.02% BSA, 0.1 mM EDTA, 0.5 mM DTT) and 20 μl of 8 μM substrate (M1865 from Bachem, Bubendorf, Switzerland; Matayoshi et al., Science 1990, 247, 954-8) in buffer 1 are added successively to a 384 well microtiter plate (Greiner, Frickenhausen, Germany), incubated for 60-180 minutes at 32° C. and the fluorescence is measured (e.g., Tecan Safire, 340 nm extinction, 520 nm emission). IC50 values are determined by graphical plotting the substance concentration against the percentage inhibition.
The term IC50 denotes the concentration needed to halve the response being measured. Low readings indicate greater potency in that assay, high ones weaker potency in that assay. `Cc1cc(-c2ccc(NS(C)(=O)=O)cc2)c(Cl)cc1C1=C(O)C2(CCC3CCCC3C2)OC1=O` (centres unmarked) [Example 180] displayed an IC50 of no more than 100 nM. The compound `Cc1cc(-c2cccc(NC(=O)CCCN(C)C)c2)c(Cl)cc1C1=C(O)C2(CCCCC2)OC1=O` [Example 181] yielded an IC50 of no more than 100 nM. For the compound `Cc1cc(-c2cccc(NC(=O)CN(C)C)c2)c(Cl)cc1C1=C(O)[C@]2(CC[C@@H]3CCC[C@@H]3C2)OC1=O` [Example 182], the IC50 is no more than 100 nM. Regarding `Cc1cc(-c2cccc(NC(=O)CCN)c2)c(Cl)cc1C1=C(O)[C@]2(CC[C@@H]3CCC[C@@H]3C2)OC1=O` [Example 183], the IC50 was no more than 100 nM. As to `CC(=O)Nc1cc(-c2cc(C)c(C3=C(O)C4(CCCCC4)OC3=O)cc2Cl)ccc1C` [Example 184, N-[2′-Chloro-4′-(4-hydroxy-2-oxo-1-oxaspiro[4.5]dec-3-en-3-yl)-4,5′-dimethylbiphenyl-3-yl]acetamide], the IC50 was no more than 100 nM.

Consider `Cc1cc(-c2cccc(N(C)S(C)(=O)=O)c2)c(Cl)cc1C1=C(O)C2(CCCCC2)OC1=O` [Example 185, N-[2′-Chloro-4′-(4-hydroxy-2-oxo-1-oxaspiro[4.5]dec-3-en-3-yl)-5′-methylbiphenyl-3-yl]-N-methylmethanesulfonamide], for which the IC50 is no more than 100 nM. For `Cc1cc(-c2cccc(NS(C)(=O)=O)c2)c(Cl)cc1C1=C(O)C2(CCC3CCCC3C2)OC1=O` (centres unmarked) [Example 189], the half-maximal inhibitory concentration (IC50) was no more than 100 nM. The compound `CCS(=O)(=O)Nc1cccc(-c2cc(C)c(C3=C(O)C4(CCCCC4)OC3=O)cc2Cl)c1` [Example 190] came in with an IC50 of no more than 100 nM.

Compound `Cc1cc(-c2cccc(NS(=O)(=O)Cc3ccccc3)c2)c(Cl)cc1C1=C(O)C2(CCCCC2)OC1=O` [Example 191] returned an IC50 of no more than 100 nM. In turn, `Cc1cc(-c2cccc(NS(=O)(=O)c3cccnc3)c2)c(Cl)cc1C1=C(O)C2(CCCCC2)OC1=O` [Example 192] returned an IC50 of no more than 100 nM. Regarding `C=CS(=O)(=O)Nc1cccc(-c2cc(C)c(C3=C(O)C4(CCCCC4)OC3=O)cc2Cl)c1` [Example 193, N-[2′-Chloro-4′-(4-hydroxy-2-oxo-1-oxaspiro[4.5]dec-3-en-3-yl)-5′-methylbiphenyl-3-yl]ethenesulfonamide], the IC50 is no more than 100 nM. In the case of `Cc1cc(-c2cccc(S(C)(=O)=O)c2)c(Cl)cc1C1=C(O)C2(CCCCCC2)OC1=O` [Example 198], the IC50 is no more than 100 nM. As to `Cc1cc(-c2cccc(NS(C)(=O)=O)c2)c(Cl)cc1C1=C(O)C2(CCCCCC2)OC1=O` [Example 199], the IC50 is no more than 100 nM. In turn, `Cc1cc(-c2cccc(S(C)(=O)=O)c2)c(Cl)cc1C1=C(O)C2(CCCC2)OC1=O` [Example 200] registered an IC50 of no more than 100 nM. On to `Cc1cc(-c2ccccc2)c(Cl)cc1C1=C(O)C2(CCCC2)OC1=O` [Example 201], for which the half-inhibitory concentration (IC50) is no more than 100 nM. Regarding `Cc1cc(-c2cccc(NS(C)(=O)=O)c2)c(Cl)cc1C1=C(O)C2(CCCC2)OC1=O` [Example 202], the IC50 is no more than 100 nM.

`Cc1cc(-c2cccc(S(C)(=O)=O)c2)c(Cl)cc1C1=C(O)C2(CCCN(CC(=O)NCc3ccc(Cl)s3)C2)OC1=O` (centres unmarked) [Example 203] yielded an IC50 of no more than 100 nM.

Values taken from patent US20100022527A1, “BIPHENYL SUBSTITUTED SPIROTETRONIC ACIDS AND THEIR USE FOR THE TREATMENT OF RETROVIRAL DISEASES” (priority 2006, published 2010).
